In US7118895B2, “Process for producing aglycon by using diglycosidase and flavor-improved food containing the aglycon and converting agent to be used in the process” (Amano Enzyme Inc., priority 2000, dated 2006):

What was measured:
[1] = test system: Diglycosidase derived from P. multicolor; experiment: Reactivity toward various isoflavone glycosides (HPLC); type: biochemical, Penicillium multicolor; design: glucoside / aglycon: unit not given here; conditions: 55 °C, pH 4.0
Outline: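 Enzymes at 0.75 AU/mL in pH 4.0 acetate buffer were reacted at 55° C with individual isoflavone glycosides (substrate stock 2 mM in methanol) in 20 mM acetate pH 4.0. Aglycone release followed at 0, 1, 3 and 6 h: ethanol-quenched, ODS HPLC with UV 260 nm, quantified against calibration curves.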

Crude diglycosidase = experiment: Examination of substrate concentration in the conversion into isoflavone aglycons by diglycosidase using soybean materials; type: biochemical, Penicillium multicolor IAM7153;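 further: percent of the isoflavone family total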
Outline: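 Soybean materials (roasted soy flour, soymilk, defatted soybean, concentrated soy protein) at 2–30% (w/v) in 20 mM acetate pH 4.0 were reacted with crude diglycosidase at 55° C with shaking; enzyme solution added was 1.88 AU/mL. Samples taken at 0, 1, 3 and 6 h were ethanol-extracted and analyzed by HPLC.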

Question: `O=C(O)CC(=O)OC[C@H]1O[C@@H](Oc2cc(O)c3c(=O)c(-c4ccc(O)cc4)coc3c2)[C@H](O)[C@@H](O)[C@@H]1O` [malonylgenistin, 6″-O-malonylgenistin] was tested. Which aglycon ([1]; Reaction time 0 h) did it give?
Answer: 0

Question: What about the glucoside ([1]; Reaction time 0 h) of the same compound?
Answer: 100

Question: What about the aglycon ([1]; Reaction time 1 h) of the same compound?
Answer: 74.2

Question: What about the glucoside ([1]; Reaction time 1 h) of the same compound?
Answer: 25.8

Question: And the aglycon ([1]; Reaction time 3 h)?
Answer: 82.1

Question: And the glucoside ([1]; Reaction time 3 h)?
Answer: 17.9

Question: And the aglycon ([1]; Reaction time 6 h)?
Answer: 82.3

Question: And the glucoside ([1]; Reaction time 6 h)?
Answer: 17.7

Question: And the “Decomposition efficiency: ratio of each glycoside/aglycon within its isoflavone family” value (Crude diglycosidase; concentrated soybean protein, substrate concentration 2%, heat treatment of enzyme no, reaction time 0 h)?
Answer: not detected

Question: What about the “Decomposition efficiency: ratio of each glycoside/aglycon within its isoflavone family” value (Crude diglycosidase; concentrated soybean protein, substrate concentration 2%, heat treatment of enzyme no, reaction time 1 h) of the same compound?
Answer: not detected

Question: And the “Decomposition efficiency: ratio of each glycoside/aglycon within its isoflavone family” value (Crude diglycosidase; concentrated soybean protein, substrate concentration 2%, heat treatment of enzyme no, reaction time 3 h)?
Answer: not detected

Question: And the “Decomposition efficiency: ratio of each glycoside/aglycon within its isoflavone family” value (Crude diglycosidase; concentrated soybean protein, substrate concentration 2%, heat treatment of enzyme no, reaction time 6 h)?
Answer: not detected

Question: What about the “Decomposition efficiency: ratio of each glycoside/aglycon within its isoflavone family” value (Crude diglycosidase; concentrated soybean protein, substrate concentration 2%, heat treatment of enzyme yes, reaction time 6 h) of the same compound?
Answer: not detected

Question: And the “Decomposition efficiency: ratio of each glycoside/aglycon within its isoflavone family” value (Crude diglycosidase; concentrated soybean protein, substrate concentration 5%, heat treatment of enzyme no, reaction time 0 h)?
Answer: not detected

Question: And the “Decomposition efficiency: ratio of each glycoside/aglycon within its isoflavone family” value (Crude diglycosidase; concentrated soybean protein, substrate concentration 5%, heat treatment of enzyme no, reaction time 1 h)?
Answer: not detected

Question: What about the “Decomposition efficiency: ratio of each glycoside/aglycon within its isoflavone family” value (Crude diglycosidase; concentrated soybean protein, substrate concentration 5%, heat treatment of enzyme no, reaction time 3 h) of the same compound?
Answer: not detected

Question: What about the “Decomposition efficiency: ratio of each glycoside/aglycon within its isoflavone family” value (Crude diglycosidase; concentrated soybean protein, substrate concentration 5%, heat treatment of enzyme no, reaction time 6 h) of the same compound?
Answer: not detected

Question: And the “Decomposition efficiency: ratio of each glycoside/aglycon within its isoflavone family” value (Crude diglycosidase; concentrated soybean protein, substrate concentration 5%, heat treatment of enzyme yes, reaction time 6 h)?
Answer: not detected

Question: What about the “Decomposition efficiency: ratio of each glycoside/aglycon within its isoflavone family” value (Crude diglycosidase; concentrated soybean protein, substrate concentration 10%, heat treatment of enzyme no, reaction time 0 h) of the same compound?
Answer: not detected

Question: What about the “Decomposition efficiency: ratio of each glycoside/aglycon within its isoflavone family” value (Crude diglycosidase; concentrated soybean protein, substrate concentration 10%, heat treatment of enzyme no, reaction time 1 h) of the same compound?
Answer: not detected

Question: And the “Decomposition efficiency: ratio of each glycoside/aglycon within its isoflavone family” value (Crude diglycosidase; concentrated soybean protein, substrate concentration 10%, heat treatment of enzyme no, reaction time 3 h)?
Answer: not detected

Question: And the “Decomposition efficiency: ratio of each glycoside/aglycon within its isoflavone family” value (Crude diglycosidase; concentrated soybean protein, substrate concentration 10%, heat treatment of enzyme no, reaction time 6 h)?
Answer: not detected

Question: And the “Decomposition efficiency: ratio of each glycoside/aglycon within its isoflavone family” value (Crude diglycosidase; concentrated soybean protein, substrate concentration 10%, heat treatment of enzyme yes, reaction time 6 h)?
Answer: not detected

Question: What about the “Decomposition efficiency: ratio of each glycoside/aglycon within its isoflavone family” value (Crude diglycosidase; concentrated soybean protein, substrate concentration 20%, heat treatment of enzyme no, reaction time 0 h) of the same compound?
Answer: not detected

Question: What about the “Decomposition efficiency: ratio of each glycoside/aglycon within its isoflavone family” value (Crude diglycosidase; concentrated soybean protein, substrate concentration 20%, heat treatment of enzyme no, reaction time 1 h) of the same compound?
Answer: not detected

Question: And the “Decomposition efficiency: ratio of each glycoside/aglycon within its isoflavone family” value (Crude diglycosidase; concentrated soybean protein, substrate concentration 20%, heat treatment of enzyme no, reaction time 3 h)?
Answer: not detected

Question: And the “Decomposition efficiency: ratio of each glycoside/aglycon within its isoflavone family” value (Crude diglycosidase; concentrated soybean protein, substrate concentration 20%, heat treatment of enzyme no, reaction time 6 h)?
Answer: not detected

Question: What about the “Decomposition efficiency: ratio of each glycoside/aglycon within its isoflavone family” value (Crude diglycosidase; concentrated soybean protein, substrate concentration 20%, heat treatment of enzyme yes, reaction time 6 h) of the same compound?
Answer: not detected

Question: And the “Decomposition efficiency: ratio of each glycoside/aglycon within its isoflavone family” value (Crude diglycosidase; concentrated soybean protein, substrate concentration 30%, heat treatment of enzyme no, reaction time 0 h)?
Answer: not detected

Question: What about the “Decomposition efficiency: ratio of each glycoside/aglycon within its isoflavone family” value (Crude diglycosidase; concentrated soybean protein, substrate concentration 30%, heat treatment of enzyme no, reaction time 1 h) of the same compound?
Answer: not detected

Question: What about the “Decomposition efficiency: ratio of each glycoside/aglycon within its isoflavone family” value (Crude diglycosidase; concentrated soybean protein, substrate concentration 30%, heat treatment of enzyme no, reaction time 3 h) of the same compound?
Answer: not detected

Question: What about the “Decomposition efficiency: ratio of each glycoside/aglycon within its isoflavone family” value (Crude diglycosidase; concentrated soybean protein, substrate concentration 30%, heat treatment of enzyme no, reaction time 6 h) of the same compound?
Answer: not detected

Question: And the “Decomposition efficiency: ratio of each glycoside/aglycon within its isoflavone family” value (Crude diglycosidase; concentrated soybean protein, substrate concentration 30%, heat treatment of enzyme yes, reaction time 6 h)?
Answer: not detected

Question: And the “Decomposition efficiency: ratio of each glycoside/aglycon within its isoflavone family” value (Crude diglycosidase; roasted soy flour, substrate concentration 2%, heat treatment of enzyme no, reaction time 0 h)?
Answer: not detected

Question: What about the “Decomposition efficiency: ratio of each glycoside/aglycon within its isoflavone family” value (Crude diglycosidase; roasted soy flour, substrate concentration 2%, heat treatment of enzyme no, reaction time 1 h) of the same compound?
Answer: not detected

Question: And the “Decomposition efficiency: ratio of each glycoside/aglycon within its isoflavone family” value (Crude diglycosidase; roasted soy flour, substrate concentration 2%, heat treatment of enzyme no, reaction time 3 h)?
Answer: not detected

Question: What about the “Decomposition efficiency: ratio of each glycoside/aglycon within its isoflavone family” value (Crude diglycosidase; roasted soy flour, substrate concentration 2%, heat treatment of enzyme no, reaction time 6 h) of the same compound?
Answer: not detected

Question: What about the “Decomposition efficiency: ratio of each glycoside/aglycon within its isoflavone family” value (Crude diglycosidase; roasted soy flour, substrate concentration 2%, heat treatment of enzyme yes, reaction time 6 h) of the same compound?
Answer: not detected

Question: And the “Decomposition efficiency: ratio of each glycoside/aglycon within its isoflavone family” value (Crude diglycosidase; roasted soy flour, substrate concentration 5%, heat treatment of enzyme no, reaction time 0 h)?
Answer: not detected

Question: And the “Decomposition efficiency: ratio of each glycoside/aglycon within its isoflavone family” value (Crude diglycosidase; roasted soy flour, substrate concentration 5%, heat treatment of enzyme no, reaction time 1 h)?
Answer: not detected

Question: And the “Decomposition efficiency: ratio of each glycoside/aglycon within its isoflavone family” value (Crude diglycosidase; roasted soy flour, substrate concentration 5%, heat treatment of enzyme no, reaction time 3 h)?
Answer: not detected

Question: And the “Decomposition efficiency: ratio of each glycoside/aglycon within its isoflavone family” value (Crude diglycosidase; roasted soy flour, substrate concentration 5%, heat treatment of enzyme no, reaction time 6 h)?
Answer: not detected

Question: What about the “Decomposition efficiency: ratio of each glycoside/aglycon within its isoflavone family” value (Crude diglycosidase; roasted soy flour, substrate concentration 5%, heat treatment of enzyme yes, reaction time 6 h) of the same compound?
Answer: not detected

Question: And the “Decomposition efficiency: ratio of each glycoside/aglycon within its isoflavone family” value (Crude diglycosidase; roasted soy flour, substrate concentration 10%, heat treatment of enzyme no, reaction time 0 h)?
Answer: not detected

Question: What about the “Decomposition efficiency: ratio of each glycoside/aglycon within its isoflavone family” value (Crude diglycosidase; roasted soy flour, substrate concentration 10%, heat treatment of enzyme no, reaction time 1 h) of the same compound?
Answer: not detected

Question: What about the “Decomposition efficiency: ratio of each glycoside/aglycon within its isoflavone family” value (Crude diglycosidase; roasted soy flour, substrate concentration 10%, heat treatment of enzyme no, reaction time 3 h) of the same compound?
Answer: not detected

Question: And the “Decomposition efficiency: ratio of each glycoside/aglycon within its isoflavone family” value (Crude diglycosidase; roasted soy flour, substrate concentration 10%, heat treatment of enzyme no, reaction time 6 h)?
Answer: not detected

Question: What about the “Decomposition efficiency: ratio of each glycoside/aglycon within its isoflavone family” value (Crude diglycosidase; roasted soy flour, substrate concentration 10%, heat treatment of enzyme yes, reaction time 6 h) of the same compound?
Answer: not detected

Question: And the “Decomposition efficiency: ratio of each glycoside/aglycon within its isoflavone family” value (Crude diglycosidase; roasted soy flour, substrate concentration 20%, heat treatment of enzyme no, reaction time 0 h)?
Answer: not detected

Question: And the “Decomposition efficiency: ratio of each glycoside/aglycon within its isoflavone family” value (Crude diglycosidase; roasted soy flour, substrate concentration 20%, heat treatment of enzyme no, reaction time 1 h)?
Answer: not detected

Question: What about the “Decomposition efficiency: ratio of each glycoside/aglycon within its isoflavone family” value (Crude diglycosidase; roasted soy flour, substrate concentration 20%, heat treatment of enzyme no, reaction time 3 h) of the same compound?
Answer: not detected

Question: What about the “Decomposition efficiency: ratio of each glycoside/aglycon within its isoflavone family” value (Crude diglycosidase; roasted soy flour, substrate concentration 20%, heat treatment of enzyme no, reaction time 6 h) of the same compound?
Answer: not detected

Question: And the “Decomposition efficiency: ratio of each glycoside/aglycon within its isoflavone family” value (Crude diglycosidase; roasted soy flour, substrate concentration 20%, heat treatment of enzyme yes, reaction time 6 h)?
Answer: not detected
